Tests used:
human SKmel23 cells = assay: SKmel23 metastatic melanoma model (lung surface nodules); format: in vivo, nude mice; conditions: for reduced metastasis (percent inhibition of lung nodules): SKmel23 i.v., day 20
Experimental: (§1) For the following subcutaneous studies, tumor volumes are calculated by the formula [π/6(W1×W2×W2)], where W1 represents the largest tumor diameter and W2 represents the smallest tumor diameter. % T/C=100×(Treatment Volume/Initial Volume)/(Control Volume/Initial Volume). Statistical analysis is done using traditional p-value techniques. For the subcutaneous studies the p value is calculated based on the tumor volume of animals receiving the anti-TYPR antibody verses the tumor volume of the control animals. […] Statistical analysis is done using traditional p-value techniques. For the metastatic studies the p-value is calculated based on the nodules observed in the animals receiving the anti-TYPR antibody verses the nodules observed in the control animals.
(§2) B16BL6 is an aggressive and spontaneously arising murine melanoma. It forms lung metastases in nude mice after intravenous administration. Harvest, wash and resuspend cultured SKmel23 and B16BL6 cells melanoma cells in RPMI 1640 media (10% FBS heat inactivated).
(§3) Model 2: Inject 1×10^5 human SKmel23 cells intravenously. On the second day after the tumor injection, administer to mice anti-TYRP1 antibodies or control human IgG, according to two different dose concentrations (200 μg/mouse and 500 μg/mouse). Sacrifice mice on day 20, remove lungs, count lung surface nodules and calculate percent inhibition.
(§4) For the subcutaneous model, harvest, wash and resuspend cultured 624mel cells, in a 50/50 solution of Matrigel and RPMI 1640 media (10% FBS heat inactivated). Inject 2×10^6 624mel cells into the left flank of nude mice. When tumors reach 200 mm^3, treat mice with anti-TYRP1 antibodies, DTIC, or a combination of anti-TYRP1 antibodies and DTIC. Administer 40 mg/kg antibodies once per week. Administer DTIC 5 mg/kg once per week. Measure tumors with calipers twice a week and calculate % T/C. For metastatic model, harvest, wash and resuspend cultured SKmel23, 888mel and B16 melanoma cells, in RPMI 1640 media (10% FBS heat inactivated). Inject SKmel23, 888mel and B16 melanoma cells intravenously. On the second day after the tumor injection, administer to mice anti-TYRP1 antibodies or control human IgG. Sacrifice mice on day 20, remove lungs, count lung surface nodules and calculate percent inhibition.

SKmel28 xenografts = assay: SKmel28 subcutaneous xenograft model; format: in vivo, nude mice
Experimental: as §1
(§5) Harvest, wash and resuspend 624mel cultured cells in a 50/50 solution of Matrigel and RPMI 1640 media (10% FBS heat inactivated). For the subcutaneous tumor model, inject 2×10^6 cells subcutaneously into the left flank of nude mice. When tumors reach 200 mm^3, treat mice with anti-TYRP1 antibodies or control human IgG; administer antibodies 1 mg/mouse three times per week. Measure tumors with calipers twice a week and calculate % T/C. […] Tumor growth was inhibited and reached statistical significance at day 16 post initiation of antibody treatment (T/C=44%; P=0.01). […] Lysates of skins from different species are incubated with TA99 (5 μg/ml) for 2 hours at room temperature. The lysates are then precipitated with protein A and subjected to SDS-PAGE under reducing and non-reducing conditions using […]. After electrophoresis, the gels are transferred to PVDF membrane (Invitrogen Life Technologies). […] The blot is developed using a chemiluminescent substrate (KPL, Gaithersburg, Md.).
Mix Skmel28 cells in a 50/50 solution of Matrigel and RPMI 1640 media (10% FBS heat inactivated). Inject 2×10^6 cells subcutaneously into the left flank of nude mice. When tumors reach 200 mm^3, treat mice with anti-TYRP1 antibodies (6 mg/kg, 20 mg/kg, or 60 mg/kg) or control human IgG three times per week. Measure tumors with calipers twice a week and calculate % T/C. […] The anti-tumor effects at each dose were statistically significant: […] (T/C=50%; P=0.04), […] (T/C=19%; P<0.003).

888mel cells = assay: 888mel metastatic melanoma model (lung surface nodules); format: in vivo, nude mice
Experimental: as §1
For the metastatic model, harvest, wash and resuspend 888mel cultured cells in RPMI 1640 media (10% FBS heat inactivated), inject 888mel cells intravenously. On the second day after the tumor injection, administer to mice anti-TYRP1 antibodies or control human IgG. Sacrifice mice on day 20, remove lungs, count lung surface nodules and calculate percent inhibition.
For the subcutaneous model, harvest, wash and resuspend cultured 624mel cells, in a 50/50 solution of Matrigel and RPMI 1640 media (10% FBS heat inactivated). Inject 2×10^6 624mel cells into the left flank of nude mice. […]

[1] = tested on: TYRP1 (+) human 624mel cells; assay: Complement dependent cytotoxicity (CDC) assay; format: cell-based; conditions: for induction of CDC (in words): 624mel cells in vitro; for Human CDC (%): Table 4 summary, 624mel cells
Experimental: Wash human melanoma cell line 624mel 3 times and bring to a concentration of 10^6 viable cells/mL in a suitable media, such as AIM V Media (Invitrogen Life Technologies). […] Add low-Tox-M Rabbit complement (Cedarlane Labs, Westbury, N.Y.) diluted 1:5 in AIM V at 50 μl/well and incubate for 1 hr at 37° C. Count cells for viability with Trypan Blue (Invitrogen Life Technologies).

624mel xenograft = assay: 624mel subcutaneous xenograft model; format: in vivo, nude mice
Experimental: as §1, §5
For the subcutaneous tumor model, harvest, wash and resuspend 624mel cultured cells in a 50/50 solution of Matrigel and RPMI 1640 media (10% FBS heat inactivated), then inject 2×10^6 624mel cells subcutaneously into the left flank of nude mice. […] Measure tumors with calipers twice a week and calculate % T/C. […]

[2] = tested on: TYRP1 (+) human 624mel cells; assay: Antibody dependent cellular cytotoxicity (ADCC) against human melanoma in vitro; format: cell-based; conditions: 624mel cells in vitro
Experimental: Collect and wash 624mel cells with a suitable media, such as AIM V media (Invitrogen Life Technologies) and plate the cells at a density of 10,000 cells /well in a 100 μL volume, in a 96-well Falcon U bottom plate. Add antibodies at 5 μg/mL in a 50 μL volume and incubate at 37° C. for 0.5 hr with target cells. Effector cells were added in a volume of 50 μL at various E:T (effector:target) ratios. Plates were further incubated for 4 hrs at 37° C. After incubation, plates were spun down at 800 g, and 100 μL of supernatants were gently transferred to 96 well flat bottom plates. Lactate dehydrogenase assay reagent was added as specified by the manufacturer (Roche) and plates were read at 490 nm. Controls in assay: Target Spontaneous and Target Maximum (by adding 50 μL of 4% triton).
Lysis is dependent on the effector to target concentration with lysis of 50% of target cells occurring at an E:T ratio of 100:1.

Human FcR = Human FcR binding; conditions: Table 4 summary
B16BL6 murine melanoma = assay: B16BL6 metastatic melanoma model (lung surface nodules); format: in vivo, nude mice; conditions: for Inhibition of lung metastases: B16BL6 i.v., day 20
Experimental: as §1, §2
as §3, with “1:” for “2:”, “B16BL6” for “human SKmel23”, “three” for “two”, “μg/mouse, 500 μg/mouse,” for “μg/mouse”, “1 mg/mouse).” for “500 μg/mouse).”
as §4

For “20D7: recombinant human monoclonal antibody, full length IgG1κ targeting TYRP1; heavy chain SEQ ID NO 29, light chain SEQ ID NO 32 [Antibody 20D7]”, the “reduced metastasis (percent inhibition of lung nodules)” value (human SKmel23 cells; 200 μg/dose) was 58%, the “reduced metastasis (percent inhibition of lung nodules)” value (human SKmel23 cells; 500 μg/dose) was 73% and the “% inhibition” value (human SKmel23 cells; Table 9, Metastatic, SKmel23) was 80%. The T/C (SKmel28 xenografts; SKmel28 dose response, 6 mg/kg three times per week) was 69%, the T/C (SKmel28 xenografts; SKmel28 dose response, printed as 6 mg/kg and 20 mg/kg, three times per week) was 50% and the T/C (SKmel28 xenografts; SKmel28 dose response, printed as 6 mg/kg and 60 mg/kg, three times per week) was 19%. For the same substance, the T/C (SKmel28 xenografts; SKmel28 xenografts, vs human IgG control, day 43) was 51%, the “inhibition of lung surface metastasis” value (888mel cells; 888mel i.v. in nude mice, day 20) was 77% and the “% inhibition” value (888mel cells; Table 9, Metastatic, 888 mel) was 77%. The “induction of CDC (in words)” value [1] was “induce CDC”, the “Human CDC (%)” value [1] was 100% and the “complement-mediated cell lysis (in words)” value ([1]; antibody concentration of 3.7 μg/mL) was “complete cell lysis”. For the same substance, the T/C (624mel xenograft; 624mel subcutaneous xenograft, 40 mg/kg twice per week) was 21%, the “% T/C” value (624mel xenograft; Table 9, Subcutaneous, 624mel, antibody 40 mg/kg once per week, DTIC 5 mg/kg once per week) was 50% and the T/C (624mel xenograft; established 624mel tumors, 1 mg/mouse three times per week, day 16 post initiation of antibody treatment) was 44%. The “induction of ADCC (in words)” value [2] was “induce ADCC”, the “Human FcR binding” value (Human FcR) was 110 pM and the “Inhibition of lung metastases” value (B16BL6 murine melanoma; 200 μg/mouse) was 65%. The “Inhibition of lung metastases” value (B16BL6 murine melanoma; 500 μg/mouse) was 74%, the “Inhibition of lung metastases” value (B16BL6 murine melanoma; 1 mg/mouse) was 95% and the “% inhibition” value (B16BL6 murine melanoma; Table 9, Metastatic, B16) was 95%.

With “CTA99: chimeric anti-TYRP1 antibody with TA99 variable regions and human constant region IgG1; SEQ ID NO 31 and 33” the “reduced metastasis (percent inhibition of lung nodules)” value (human SKmel23 cells; 200 μg/dose) was 63%, the “reduced metastasis (percent inhibition of lung nodules)” value (human SKmel23 cells; 500 μg/dose) was 75% and the “induction of CDC (in words)” value [1] was “induce CDC”. For the same substance, the “Human CDC (%)” value [1] was 94%, the “CDC percentage of cytotoxicity” value ([1]; antibody concentration 0.05 μg/mL) was 9.5% and the “CDC percentage of cytotoxicity” value ([1]; antibody concentration 0.41 μg/mL) was 53%. For the same substance, the “CDC percentage of cytotoxicity” value ([1]; antibody concentration 1.23 μg/mL) was 54%, the “CDC percentage of cytotoxicity” value ([1]; antibody concentration 3.7 μg/mL) was 95% and the “induction of ADCC (in words)” value [2] was “induce ADCC”.

Source: patent US7951370B2, “Anti-TYRP1 antibodies” (ImClone LLC, priority 2008, dated 2011)
